Assay results published in patent US20120100990A1, “4 -AMINOPICOLINATES AND THEIR USE AS HERBICIDES” (SYNGENTA CROP PROTECTION LLC, priority 2009, published 2012).

What was measured:
Assay type in all cases: in vivo
[1] = tested on: Amaranthus retroflexus (AMARE); experiment: Post-emergence biological efficacy, glasshouse pot test; conditions: 312 h, 1,000 g/ha, evaluated after 13 days, 100=total damage, 0=no damage, read-out: Percentage damage caused to weed species, post-emergence, AMARE
In short: (§1)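 Seeds are sown in pots of standard soil and grown 8 days under controlled glasshouse conditions (24/16 °C, 14 h photoperiod, 65% humidity). Seedlings are then sprayed at 1000 or 250 g/ha, kept under the same conditions with twice-daily watering, and assessed on a 0–100 damage scale after 13 days.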

[2] = tested on: Echinochloa crus-galli (ECHCG); experiment: as above; conditions: 312 h, 1,000 g/ha, evaluated after 13 days, 100=total damage, 0=no damage, read-out: Percentage damage caused to weed species, post-emergence, ECHCG
In short: as §1

Solanum nigrum (SOLNI) [3] = experiment: as above; conditions: 312 h, 1,000 g/ha, evaluated after 13 days, 100=total damage, 0=no damage, read-out: Percentage damage caused to weed species, post-emergence, SOLNI
In short: as §1

[4] = tested on: Ipomea hederaceae (IPOHE); experiment: as above; conditions: Ipomoea hederacea, 312 h, 1,000 g/ha, evaluated after 13 days, 100=total damage, 0=no damage, read-out: Percentage damage caused to weed species, post-emergence, IPOHE
In short: as §1

Setaria faberi (SETFA) [5] = experiment: as above; conditions: 312 h, 1,000 g/ha, evaluated after 13 days, 100=total damage, 0=no damage, read-out: Percentage damage caused to weed species, post-emergence, SETFA
In short: as §1

[6] = tested on: Alopecurus myosuroides (ALOMY); experiment: as above; conditions: 312 h, 1,000 g/ha, evaluated after 13 days, 100=total damage, 0=no damage, read-out: Percentage damage caused to weed species, post-emergence, ALOMY
In short: as §1

[7] = tested on: Amaranthus retroflexus (AMARE); experiment: Pre-emergence biological efficacy, glasshouse pot test; conditions: 312 h, 1,000 g/ha, evaluated after 13 days, 100=total damage, 0=no damage, read-out: Percentage damage caused to weed species, pre-emergence, AMARE
In short: (§2)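 Seeds sown in standard soil were sprayed one day after sowing with compound in acetone/water (50:50) plus 0.5% Tween 20 at 1000 or 250 g/ha. Pots stayed in the glasshouse at 24/16 °C day/night, 14 h light, 65% humidity. Damage was scored after 13 days (0 = none, 100 = total).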

[8] = tested on: Echinochloa crus-galli (ECHCG); experiment: as above; conditions: 312 h, 1,000 g/ha, evaluated after 13 days, 100=total damage, 0=no damage, read-out: Percentage damage caused to weed species, pre-emergence, ECHCG
In short: as §2

Solanum nigrum (SOLNI) [9] = experiment: as above; conditions: 312 h, 1,000 g/ha, evaluated after 13 days, 100=total damage, 0=no damage, read-out: Percentage damage caused to weed species, pre-emergence, SOLNI
In short: as §2

[10] = tested on: Ipomea hederaceae (IPOHE); experiment: as above; conditions: Ipomoea hederacea, 312 h, 1,000 g/ha, evaluated after 13 days, 100=total damage, 0=no damage, read-out: Percentage damage caused to weed species, pre-emergence, IPOHE
In short: as §2

Setaria faberi (SETFA) [11] = experiment: as above; conditions: 312 h, 1,000 g/ha, evaluated after 13 days, 100=total damage, 0=no damage, read-out: Percentage damage caused to weed species, pre-emergence, SETFA
In short: as §2

[12] = tested on: Alopecurus myosuroides (ALOMY); experiment: as above; conditions: 312 h, 1,000 g/ha, evaluated after 13 days, 100=total damage, 0=no damage, read-out: Percentage damage caused to weed species, pre-emergence, ALOMY
In short: as §2

SMILES	pest or weed control at 1000 g/ha [1] [%]	pest or weed control at 1000 g/ha [2] [%]	pest or weed control at 1000 g/ha (Solanum nigrum (SOLNI) [3]) [%]	pest or weed control at 1000 g/ha [4] [%]	pest or weed control at 1000 g/ha (Setaria faberi (SETFA) [5]) [%]	pest or weed control at 1000 g/ha [6] [%]	pest or weed control at 1000 g/ha [7] [%]	pest or weed control at 1000 g/ha [8] [%]	pest or weed control at 1000 g/ha (Solanum nigrum (SOLNI) [9]) [%]	pest or weed control at 1000 g/ha [10] [%]	pest or weed control at 1000 g/ha (Setaria faberi (SETFA) [11]) [%]	pest or weed control at 1000 g/ha [12] [%]
COC(=O)c1nc(Cl)cc(NCC2CCCCCCC2)c1Cl [Compound 69-2, 4-Cyclooctylmethyl-amino-3,6-dichloro-pyridine-2-carboxylic acid methyl ester]	100	0	90	70	0	10	90	10	100	80	10	20
COC(=O)c1nc(Cl)cc(NCC2CCCO2)c1Cl (stereo not drawn) [Compound 70-2, 3,6-Dichloro-4-(tetrahydrofuran-2-ylmethylamino)-pyridine-2-carboxylic acid methyl ester]	100	30	100	70	60	40	100	20	100	70	80	30
CCN1CCCC1CNc1cc(Cl)nc(C(=O)OC)c1Cl (stereo not drawn) [Compound 71-2, 3,6-Dichloro-4-[(N-ethyl-pyrrolidin-2-ylmethyl)-amino]-pyridine-2-carboxylic acid methyl ester]	100	20	100	60	50	20	100	20	100	100	80	70
COC(=O)c1nc(Cl)cc(NCc2ccccc2Br)c1Cl [Compound 72-2, 4-[(2-Bromophenyl-methyl)-amino]-3,6-dichloro-pyridine-2-carboxylic acid methyl ester]	100	10	100	70	70	20	90	10	100	80	30	30
COC(=O)c1nc(Cl)cc(NCc2ccccc2OC)c1Cl [Compound 73-2, 3,6-Dichloro-4-[(2-methoxyphenyl-methyl)-amino]-pyridine-2-carboxylic acid methyl ester]	100	40	90	70	80	40	100	20	100	100	80	50
C=Cc1c(NCc2ccccc2OC)cc(Cl)nc1C(=O)OC [Compound 73-12, 6-Chloro-3-ethenyl-4-[(2-methoxyphenyl-methyl)-amino]-pyridine-2-carboxylic acid methyl ester]	100	20	90	50	80	20	100	20	100	70	80	70
COC(=O)c1nc(Cl)cc(NCc2ccccc2C(F)(F)F)c1Cl [Compound 74-2, 3,6-Dichloro-4-[(2-trifluoromethyl-phenylmethyl)-amino]-pyridine-2-carboxylic acid methyl ester]	100	0	100	60	0	10	90	0	90	70	10	0
C=Cc1c(NCc2ccccc2C(F)(F)F)cc(Cl)nc1C(=O)OC [Compound 74-12, 6-Chloro-3-ethenyl-4-[(2-trifluoromethyl-phenylmethyl)-amino]-pyridine-2-carboxylic acid methyl ester]	100	20	70	10	10	10	0	0	0	0	0	0
COC(=O)c1nc(Cl)cc(NCc2cccs2)c1Cl [Compound 75-2, 3,6-Dichloro-4-(thiophen-2-ylmethylamino)-pyridine-2-carboxylic acid methyl ester]	100	70	100	70	80	60	100	60	100	90	80	70
C=Cc1c(NCc2cccs2)cc(Cl)nc1C(=O)OC [Compound 75-12, 6-Chloro-3-ethenyl-4-(thiophen-2-ylmethylamino)-pyridine-2-carboxylic acid methyl ester]	100	70	100	50	80	50	100	60	100	80	70	80
COC(=O)c1nc(Cl)cc(NCc2cc(C)nn2C)c1Cl [Compound 77-2, 3,6-Dichloro-4-[(1,3-dimethylpyrazol-5-ylmethyl)-amino]-pyridine-2-carboxylic acid methyl ester]	100	30	100	80	80	50	100	20	100	90	70	60
